Source: ChEMBL document CHEMBL4819041 (J Med Chem, 2021)

How the values were obtained:
Format in all cases: organism-based
Conditions in all cases: in vivo
[1] = Toxicity in Balb/c nude mouse xenografted with human MDA-MB-231 cells assessed as adverse effect at 20 mg/kg, ip QD
[2] = Toxicity in Balb/c nude mouse xenografted with human MDA-MB-231 cells assessed as change in body weight at 20 mg/kg, ip QD
[3] = Toxicity in Balb/c nude mouse xenografted with human MDA-MB-231 cells assessed as normal feeding at 20 mg/kg, ip QD
[4] = Toxicity in Balb/c nude mouse xenografted with human MDA-MB-231 cells assessed as normal inquisitiveness at 20 mg/kg, ip QD
[5] = Toxicity in Balb/c nude mouse xenografted with human MDA-MB-231 cells assessed as dose toleration at 20 mg/kg, ip QD

Measured: Activity

CNCc1ccccc1CN(CC(=O)Nc1ccc2c(c1)CC1(C2)C(=O)Nc2ncccc21)C(=O)C(C)(C)C (stereo not given)
Non-Toxic: [1] | [2] | [3] | [4] | [5]
